The results in this text go back to ChEMBL document CHEMBL1141168, “Studies toward the pharmacophore of salvinorin A, a potent kappa opioid receptor agonist” (J Med Chem, 2005).

SMILES strings stand for the structures. Where only a bound is given, the exact number is not on record here.

The target of assay [1] is T1, Kappa-type opioid receptor (Rattus norvegicus, UniProt P34975). Kind of assay: biochemical. In kind it is cell-based, HEK293.
Description: Inhibition of [3H]U-69593 binding to rat opioid receptor kappa 1 expressed in HEK 293 cells
For assay [2], the species on record is Rattus norvegicus. Kind of assay: Effective concentration of compound against intracellular calcium mobilization in rat. The assay is classed as functional. Background: Calcium assays in cells follow changes in intracellular calcium, usually with a dye or a luminescent sensor.
The species entered for assay [3] is Rattus norvegicus. Put plainly: Emax value against intracellular calcium mobilization in rat. In kind it is functional.
Assay [4] deals with T1, Kappa-type opioid receptor. Kind of assay: Inhibition of [3H]diprenorphine binding to rat opioid receptor kappa 1 expressed in HEK 293 cells. In kind it is cell-based, HEK293.

T1 sequence (P34975 whole entry): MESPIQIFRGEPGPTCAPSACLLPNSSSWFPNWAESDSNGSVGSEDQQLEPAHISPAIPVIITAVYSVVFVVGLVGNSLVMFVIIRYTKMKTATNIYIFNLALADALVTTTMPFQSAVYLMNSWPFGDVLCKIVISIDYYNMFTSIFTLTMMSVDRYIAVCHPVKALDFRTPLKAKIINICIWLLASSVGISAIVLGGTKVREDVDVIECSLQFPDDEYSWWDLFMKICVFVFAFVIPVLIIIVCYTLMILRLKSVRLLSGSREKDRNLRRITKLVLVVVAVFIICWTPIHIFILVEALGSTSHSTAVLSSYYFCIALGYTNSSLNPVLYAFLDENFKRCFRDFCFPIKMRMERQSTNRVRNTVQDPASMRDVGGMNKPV

Consider `COC(=O)C1=C[C@H](O)[C@H](OC(C)=O)[C@@H]2[C@@]3(C)C[C@@H](c4ccoc4)OC(=O)[C@@H]3CC[C@@]12C`, for which, in assay [1], the Ki (usually the dissociation constant of the complex between target and ligand, obtained from inhibition or displacement) was > 10000 nM.
In assay [1], `COC(=O)[C@@H]1C[C@H](OC(C)=O)C(=O)[C@H]2[C@@]1(C)CCC1=CO[C@H](c3ccoc3)C[C@@]12C` had a Ki of 6 nM. For the same compound, the EC50 (as a rule, the concentration needed to bring the measured effect to its halfway point) in the assay filed under Rattus norvegicus [2] stood at 223 nM. Also, the Emax (as a rule, the greatest response seen or fitted, relative to the assay's reference) in the assay listed under Rattus norvegicus [3] was determined as 103%.
Regarding `COC(=O)C1=C[C@H](OC(C)=O)[C@H](O)[C@@H]2[C@@]3(C)C[C@@H](c4ccoc4)OC(=O)[C@@H]3CC[C@@]12C`, the Ki in assay [4] was > 10000 nM.
As for `COC(=O)[C@@H]1C[C@H](OC(C)=O)C(=O)[C@H]2[C@@]1(C)CC[C@H]1C(O)O[C@H](c3ccoc3)C[C@]21C` (some centres undefined), the inhibition constant Ki in assay [1] came to 59 nM. Further, the 50% effective concentration (EC50) in the assay filed under Rattus norvegicus [2] was found to be 78 nM. In addition, the Emax in the assay listed under Rattus norvegicus [3] turned out to be 107%.
On to `COC(=O)[C@@H]1C[C@H](OC(C)=O)[C@H](OC(C)=O)[C@H]2[C@@]1(C)CC[C@H]1C(=O)O[C@H](c3ccoc3)C[C@]21C`, for which the Ki in assay [1] is > 10000 nM.
The compound `COC(=O)[C@@H]1C[C@H](OC(C)=O)C(=O)[C@H]2[C@@]1(C)CC[C@H]1C(=O)O[C@H](C3CCOC3)C[C@]21C` (some centres undefined) showed a Ki in assay [1] of 156 nM. The EC50 in the assay filed under Rattus norvegicus [2] turned out to be 126 nM. Moreover, in the assay listed under Rattus norvegicus [3], the Emax came out at 108%.
On the same counts, the results for `COC(=O)[C@@H]1C[C@H](OC(C)=O)C[C@H]2[C@@]1(C)CC[C@H]1C(=O)O[C@H](c3ccoc3)C[C@]21C` are 18 nM, 141 nM and 122%.
In the case of `COC(=O)C1=C[C@H](OC(C)=O)[C@H](OC(C)=O)[C@@H]2[C@@]3(C)C[C@@H](c4ccoc4)OC(=O)[C@@H]3CC[C@@]12C`, in assay [1], the Ki turned out to be 1020 nM.
In the case of `COC(=O)[C@@H]1C[C@H](OC(C)=O)C(=O)[C@@H]2[C@@]3(C)C[C@@H](c4ccoc4)OC[C@@H]3CC[C@]21C`, the Ki in assay [1] was found to be 6 nM. The EC50 in the assay listed under Rattus norvegicus [2] is 223 nM. Further, the Emax in the assay filed under Rattus norvegicus [3] was 103%.
In turn, `COC(=O)[C@@H]1C[C@H](OC=O)C(=O)[C@H]2[C@@]1(C)CC[C@H]1C(=O)O[C@H](c3ccoc3)C[C@]21C` displayed a Ki in assay [1] of 18 nM. Also, the EC50 in the assay listed under Rattus norvegicus [2] is 315 nM. Besides, the Emax in the assay filed under Rattus norvegicus [3] amounted to 108%.
In the case of `CC(=O)O[C@H]1C[C@@H](CO)[C@]2(C)CC[C@H]3C(=O)O[C@H](c4ccoc4)C[C@]3(C)[C@H]2C1=O`, the Ki in assay [1] worked out at 347 nM. In the assay listed under Rattus norvegicus [2], the EC50 was > 10000 nM.
Consider `COC(=O)[C@@H]1C[C@H](OC(C)=O)[C@H](O)[C@H]2[C@@]1(C)CC[C@H]1C(=O)O[C@H](c3ccoc3)C[C@]21C` [1-ALPHA-HYDROXYSALVINORIN A], for which the Ki in assay [1] was determined as 1130 nM.
For the compound `COC(=O)[C@@H]1C[C@H](OC(C)=O)C(=O)[C@@H]2[C@@]3(C)C[C@@H](c4ccoc4)OC(=O)[C@H]3CC[C@]21C` [SALVINORIN A (ESTER)], in the assay listed under Rattus norvegicus [2], the EC50 was 244 nM. Further, the Emax in the assay filed under Rattus norvegicus [3] came to 78%.
Take `COC(=O)[C@@H]1C[C@H](OC(C)=O)C(=O)[C@H]2[C@@]1(C)CC[C@H]1C(=O)O[C@H](c3ccoc3)C[C@]21C` [SALVINORIN A]: the EC50 in the assay listed under Rattus norvegicus [2] was 46 nM. The Emax in the assay listed under Rattus norvegicus [3] came out at 100%.
